Data: US10584115B2, “Substituted pyridine and pyrazine BMI-1 inhibitors” (PTC Therapeutics, Inc., priority 2013, dated 2020)
pEC50: −log10 of the molar value.

The compounds below were run on Bmi-1 protein (assay: Sandwich ELISA Assay (Bmi-1 protein level in HT-1080 cells after compound treatment)). Conditions: Table 1, Bmi-1 sandwich ELISA, read-out: ELISA EC50 value for Bmi-1 protein.
Format: cell-based
Outline: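 Sandwich ELISA quantified Bmi-1 protein against recombinant standard (125–8000 pg/mL), with lysates captured overnight at 4 °C and signal by HRP/TMB at 450 nm (570 nm reference). Lysates came from HT-1080 cells incubated 40–48 h with test compounds in 0.5% DMSO.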

Row | pEC50 | Compound
1 | 5.52 to 7.00 | CCc1nc2ncc(Nc3ccc(OC(F)F)cc3)cc2n1-c1cncc(Nc2ccc(OC(F)F)cc2)n1 [compound 545, N-[4-(difluoromethoxy)phenyl]-1-(6-{[4-(difluoromethoxy)phenyl]amino}pyrazin-2-yl)-2-ethyl-1H-imidazo[4,5-b]pyridin-6-amine]
2 | 8.00 to 9.00 | CCc1nc2ncc(Cl)cc2n1-c1cncc(Nc2ccc(OC(F)F)c(F)c2)n1 [compound 546, 6-(6-chloro-2-ethyl-1H-imidazo[4,5-b]pyridin-1-yl)-N-[4-(difluoromethoxy)-3-fluorophenyl]pyrazin-2-amine]
3 | 5.52 to 7.00 | Cc1nc2ncc(Nc3ccc(OC(F)F)cc3)cc2n1-c1cncc(Nc2ccc(OC(F)F)cc2)n1 [compound 547, N-[4-(difluoromethoxy)phenyl]-1-(6-{[4-(difluoromethoxy)phenyl]amino}pyrazin-2-yl)-2-methyl-1H-imidazo[4,5-b]pyridin-6-amine]
4 | 7.00 to 8.00 | CCc1nc2ncc(Cl)cc2n1-c1cncc(Nc2ccc(OC(F)(F)F)cc2)n1 [compound 548, 6-(6-chloro-2-ethyl-1H-imidazo[4,5-b]pyridin-1-yl)-N-[4-(trifluoromethoxy)phenyl]pyrazin-2-amine]
5 | 5.52 to 7.00 | CCc1nc2ncc(Cl)cc2n1-c1cncc(Nc2ccccc2)n1 [compound 549]
6 | 5.52 to 7.00 | CCc1nc2ncc(Nc3ccc(OC(F)F)c(F)c3)cc2n1-c1cncc(Nc2ccc(OC(F)F)c(F)c2)n1 [compound 550, N-[4-(difluoromethoxy)-3-fluorophenyl]-1-(6-{[4-(difluoromethoxy)-3-fluorophenyl]amino}pyrazin-2-yl)-2-ethyl-1H-imidazo[4,5-b]pyridin-6-amine]
7 | 8.00 to 9.00 | COc1ccc(Nc2cncc(-n3c(C)nc4ccc(F)cc43)n2)cc1 [compound 553, 6-(6-fluoro-2-methyl-1H-benzimidazol-1-yl)-N-(4-methoxyphenyl)pyrazin-2-amine]
8 | 7.00 to 8.00 | Cc1nc2ccc(F)cc2n1-c1cncc(Nc2ccc(Cl)cc2)n1 [compound 554, N-(4-chlorophenyl)-6-(6-fluoro-2-methyl-1H-benzimidazol-1-yl)pyrazin-2-amine]
9 | 5.52 to 7.00 | COc1cccc(Nc2cncc(-n3c(C)nc4ccccc43)n2)c1 [compound 557, N-(3-methoxyphenyl)-6-(2-methyl-1H-benzimidazol-1-yl)pyrazin-2-amine]
10 | 5.52 to 7.00 | COc1cccc(Nc2cncc(-n3c(C)nc4ccc(F)cc43)n2)c1 [compound 559, 6-(6-fluoro-2-methyl-1H-benzimidazol-1-yl)-N-(3-methoxyphenyl)pyrazin-2-amine]
11 | 8.00 to 9.00 | COc1ccc(Nc2cncc(-n3c(C)nc4ccccc43)n2)cc1 [compound 561, N-(4-methoxyphenyl)-6-(2-methyl-1H-benzimidazol-1-yl)pyrazin-2-amine]
12 | 8.00 to 9.00 | Cc1ccc(Nc2cncc(-n3c(C)nc4ccccc43)n2)cc1 [compound 562, 6-(2-methyl-1H-benzimidazol-1-yl)-N-(4-methylphenyl)pyrazin-2-amine]
13 | 7.00 to 8.00 | Cc1ccc(Nc2cncc(-n3c(C)nc4ccccc43)n2)c(N)c1 [compound 563, 4-methyl-N^1-[6-(2-methyl-1H-benzimidazol-1-yl)pyrazin-2-yl]benzene-1,2-diamine]
14 | 5.52 to 7.00 | Cc1nn2ccccc2c1-c1cncc(Nc2ccccc2)n1 [compound 564, 6-(2-methylpyrazolo[1,5-a]pyridin-3-yl)-N-phenylpyrazin-2-amine]
15 | > 9.00 | COc1ccc(Nc2cncc(-c3c(C)nn4ccccc34)n2)cc1 [compound 565, N-(4-methoxyphenyl)-6-(2-methylpyrazolo[1,5-a]pyridin-3-yl)pyrazin-2-amine]
16 | 8.00 to 9.00 | Cc1ccc(Nc2cncc(-c3c(C)nn4ccccc34)n2)cc1 [compound 566, N-(4-methylphenyl)-6-(2-methylpyrazolo[1,5-a]pyridin-3-yl)pyrazin-2-amine]
17 | 7.00 to 8.00 | Cc1nn2ccccc2c1-c1cncc(Nc2ccc(Cl)cc2)n1 [compound 567, N-(4-chlorophenyl)-6-(2-methylpyrazolo[1,5-a]pyridin-3-yl)pyrazin-2-amine]
18 | 5.52 to 7.00 | Cc1nn2ccccc2c1-c1cncc(Nc2ccc(F)cc2)n1 [compound 568, N-(4-fluorophenyl)-6-(2-methylpyrazolo[1,5-a]pyridin-3-yl)pyrazin-2-amine]
19 | 7.00 to 8.00 | COc1cccc(Nc2cncc(-c3c(C)nn4ccccc34)n2)c1 [compound 569, N-(3-methoxyphenyl)-6-(2-methylpyrazolo[1,5-a]pyridin-3-yl)pyrazin-2-amine]
20 | 5.52 to 7.00 | Cc1nn2ccccc2c1-c1cncc(Nc2cccc(Cl)c2)n1 [compound 570, N-(3-chlorophenyl)-6-(2-methylpyrazolo[1,5-a]pyridin-3-yl)pyrazin-2-amine]
21 | 7.00 to 8.00 | Cc1nn2ccccc2c1-c1cncc(Nc2ccc(C#N)cc2)n1 [compound 571, 4-{[6-(2-methylpyrazolo[1,5-a]pyridin-3-yl)pyrazin-2-yl]amino}benzonitrile]

Row | pEC50 | Compound
22 | 8.00 to 9.00 | COC(=O)c1ccc(Nc2cncc(-c3c(C)nn4ccccc34)n2)cc1 [compound 572, methyl 4-{[6-(2-methylpyrazolo[1,5-a]pyridin-3-yl)pyrazin-2-yl]amino}benzoate]
23 | 5.52 to 7.00 | COc1ccc(Nc2cncc(-n3c(C)nc4cc(F)c(F)cc43)n2)cc1 [compound 573, 6-(5,6-difluoro-2-methyl-1H-benzimidazol-1-yl)-N-(4-methoxyphenyl)pyrazin-2-amine]
24 | 5.52 to 7.00 | Cc1ccc(Nc2cncc(-n3c(C)nc4cc(F)c(F)cc43)n2)cc1 [compound 574, 6-(5,6-difluoro-2-methyl-1H-benzimidazol-1-yl)-N-(4-methylphenyl)pyrazin-2-amine]
25 | 7.00 to 8.00 | Cc1nc2cc(F)c(F)cc2n1-c1cncc(Nc2ccc(Cl)cc2)n1 [compound 575, N-(4-chlorophenyl)-6-(5,6-difluoro-2-methyl-1H-benzimidazol-1-yl)pyrazin-2-amine]
26 | 5.52 to 7.00 | COc1cc(C)ccc1Nc1cncc(-n2c(C)nc3ccccc32)n1 [compound 576, N-(2-methoxy-4-methylphenyl)-6-(2-methyl-1H-benzimidazol-1-yl)pyrazin-2-amine]
27 | 5.52 to 7.00 | COc1ccc(Nc2cc(-n3c(C)ccc3C)cc(-n3c(C)nc4ccccc43)n2)cc1 [compound 577, 4-(2,5-dimethyl-1H-pyrrol-1-yl)-N-(4-methoxyphenyl)-6-(2-methyl-1H-benzimidazol-1-yl)pyridin-2-amine]
28 | 5.52 to 7.00 | COc1cccc(Nc2cncc(-n3c(C)nc4cc(F)c(F)cc43)n2)c1 [compound 578, 6-(5,6-difluoro-2-methyl-1H-benzimidazol-1-yl)-N-(3-methoxyphenyl)pyrazin-2-amine]
29 | 5.52 to 7.00 | Cc1nc2cc(F)c(F)cc2n1-c1cncc(Nc2ccc3c(c2)OC(F)(F)O3)n1 [compound 579, N-(2,2-difluoro-1,3-benzodioxol-5-yl)-6-(5,6-difluoro-2-methyl-1H-benzimidazol-1-yl)pyrazin-2-amine]
30 | 7.00 to 8.00 | COc1ccc(Nc2cc(N)cc(-n3c(C)nc4ccccc43)n2)cc1 [compound 580, N^2-(4-methoxyphenyl)-6-(2-methyl-1H-benzimidazol-1-yl)pyridine-2,4-diamine]
31 | 8.00 to 9.00 | Cc1ccc(Nc2cncc(-n3c(C)nc4ccccc43)n2)c(O)c1 [compound 582, 5-methyl-2-{[6-(2-methyl-1H-benzimidazol-1-yl)pyrazin-2-yl]amino}phenol]
32 | 8.00 to 9.00 | COc1ccc(Nc2cc(C#N)cc(-n3c(C)nc4cc(F)c(F)cc43)n2)cc1 [compound 583, 2-(5,6-difluoro-2-methyl-1H-benzimidazol-1-yl)-6-[(4-methoxyphenyl)amino]pyridine-4-carbonitrile]
33 | 7.00 to 8.00 | Cc1nc2ccc(F)cc2n1-c1cc(C#N)cc(Nc2ccc(OC(F)(F)F)cc2)n1 [compound 588, 2-(6-fluoro-2-methyl-1H-benzimidazol-1-yl)-6-{[4-(trifluoromethoxy)phenyl]amino}pyridine-4-carbonitrile]
34 | 7.00 to 8.00 | COc1ccc(Nc2cc(C#N)cc(-n3c(C)nc4ccc(F)cc43)n2)cc1 [compound 589, 2-(6-fluoro-2-methyl-1H-benzimidazol-1-yl)-6-[(4-methoxyphenyl)amino]pyridine-4-carbonitrile]
35 | > 9.00 | COc1ccc(Nc2cncc(-c3c(C)nc4ccc(F)cn34)n2)cc1 [compound 592, 6-(6-fluoro-2-methylimidazo[1,2-a]pyridin-3-yl)-N-(4-methoxyphenyl)pyrazin-2-amine]
36 | 7.00 to 8.00 | Cc1ccc(Nc2cc(C#N)cc(-n3c(C)nc4cc(F)c(F)cc43)n2)cc1 [compound 599, 2-(5,6-difluoro-2-methyl-1H-benzimidazol-1-yl)-6-[(4-methylphenyl)amino]pyridine-4-carbonitrile]
37 | 7.00 to 8.00 | Cc1nc2cc(F)c(F)cc2n1-c1cc(C#N)cc(Nc2ccc(Cl)cc2)n1 [compound 600, 2-[(4-chlorophenyl)amino]-6-(5,6-difluoro-2-methyl-1H-benzimidazol-1-yl)pyridine-4-carbonitrile]
38 | 7.00 to 8.00 | Cc1nc2cc(F)c(F)cc2n1-c1cccc(Nc2ccc(C(F)(F)F)cc2)n1 [compound 601, 6-(5,6-difluoro-2-methyl-1H-benzimidazol-1-yl)-N-[4-(trifluoromethyl)phenyl]pyridin-2-amine]
39 | 7.00 to 8.00 | Cc1nc2cc(F)c(F)cc2n1-c1cccc(Nc2ccc(OC(F)F)cc2)n1 [compound 602, N-[4-(difluoromethoxy)phenyl]-6-(5,6-difluoro-2-methyl-1H-benzimidazol-1-yl)pyridin-2-amine]
40 | 5.52 to 7.00 | Cc1nc2cc(F)c(F)cc2n1-c1cccc(Nc2ccc(OC(F)(F)F)cc2)n1 [compound 603, 6-(5,6-difluoro-2-methyl-1H-benzimidazol-1-yl)-N-[4-(trifluoromethoxy)phenyl]pyridin-2-amine]
41 | 5.52 to 7.00 | Cc1nc2ccccc2n1-c1cc(N)cc(Nc2ccc(OC(F)(F)F)cc2)n1 [compound 604]
